System: HIV-1
Test: Syncytia assay in HIV-1 infected H9 cells
Type: cell-based, HIV-1 strain HXB2gptX (in human H9 cells)
Details: H9 cells
Experimental: Media was changed every other day. The effect of these compounds on virus production was determined by measuring the reverse transcriptase (RT) activity in samples of the cell culture supernatants. […] Negative controls consisted of no additions or 0.1ethanol. The results of duplicate assays were averaged. Panel B -Concentration-dependent effects of 13-oxamyristic acid on HIV-1 replication as measured by RT activity (percent of untreated control) and the presence of p24 antigen (ng/ml determined by ELISA). Error bars indicate the S.E.M. of assays done in triplicate. Panel C - The effect of 13-oxamyristic acid on syncytia formation using an arbitrary scale described under Materials and Methods, Example 16, below. Panel D - Toxicity of 13-oxamyristic acid determined by viable cell count (trypan blue exclusion), as well as by [^3 H]thymidine and [^3 H]leucine labeling (see under Materials and Methods, Example 16, below). The incorporation of these radiolabeled compounds was determined in the total cell population contained in a well after 10 days of treatment with the analog. Duplicate assays were performed and the results averaged.
Assay for HIV-1 Replication. The human T-lymphoid cell line, H9, was provided by R. D. Gallo (NIH) and maintained in RPMI-1640 medium supplemented with 10% fetal bovine serum, 100 IU/mL penicillin, 100 μg/mL streptomycin an 2 mM L-glutamine. […] The titer of the virus stock was determined by serial dilution using syncytia formation and reverse transcriptase activity (see below) as a measure of infectivity in H9 cells. […]
Syncytia Assay. The number of syncytia in each well was determined by microscopic examination on days 4-6 (infected, untreated control cultures), 8 and 10 (analog or decanoate treated cultures). The average number of multi-nucleated giant cells counted per 10 low-power fields (LPF =40 times magnification) was assigned to an arbitrary syncytia scale: 0=<1/LPF, 1+=1-4/LPF, 2+=5-7/LPF, 3+= 8-10/LPF, 4+=>10/LPF. By this criteria uninfected, control cells had zero synctia, and infected, untreated H9 cells were consistently scored as 4+.

SMILES: COCCCCCCCCCCCC(=O)O [13-oxamyristate, 12-(Methoxy)dodecanoic acid]
- reduction in syncytia compared with AZT (40-80 μM vs 5 μM AZT): comparable to that obtained with 5 μM AZT
- syncytia reduction compared with RT and p24 assays (FIG. 1C): paralleled the results of the reverse transcriptase and p24 ELISA assays
